# Tested on: GST-Bcl-2
# Test: TR-FRET binding assay, Bcl-2
# Details: TR-FRET Ki values
# Method: Tb-anti-GST antibody was purchased from Invitrogen (Catalog No. PV4216).
# Representative compounds were serially diluted in dimethyl sulfoxide (DMSO) starting at 50 μM (2× starting concentration; 10% DMSO) and 10 μL were transferred into a 384-well plate.
# The samples were then mixed on a shaker for 1 minute and incubated for an additional 3 hours at room temperature. For each assay, the probe/antibody and protein/probe/antibody were included on each assay plate as negative and positive controls, respectively. Fluorescence was measured on the Envision (Perkin Elmer) using a 340/35 nm excitation filter and 520/525 (F-Bak peptide) and 495/510 nm (Tb-labeled anti-Histidine antibody) emission filters.
# The inhibition constant (Ki) is the dissociation constant of an enzyme-inhibitor complex or a protein/small molecule complex, wherein the small molecule is inhibiting binding of one protein to another protein or peptide. […] Inhibition constants were determined using Wang's equation (Wang Z-X., An Exact Mathematical Expression For Describing Competitive Binding Of Two Different Ligands To A Protein Molecule. FEBS Lett. 1995, 360:111-4).
row,Compound,Binding selectivity ratio (Bcl-XL Ki/Bcl-2 Ki)
1,"CC1(C)CCC(CN2CCN(c3ccc(C(=O)NS(=O)(=O)c4ccc(NCCC5CCOCC5)c([N+](=O)[O-])c4)c(Oc4ccc5[nH]ccc5c4)c3)CC2)=C(c2ccc(Cl)cc2)C1 [EXAMPLE 291, 4-(4-{[2-(4-chlorophenyl)-4,4-dimethylcyclohex-1-en-1-yl]methyl}piperazin-1-yl)-2-(1H-indol-5-yloxy)-N-({3-nitro-4-[(2-tetrahydro-2H-pyran-4-ylethyl)amino]phenyl}sulfonyl)benzamide]",>1179.1
2,"CNc1ccc(S(=O)(=O)NC(=O)c2ccc(N3CCN(CC4=C(c5ccc(Cl)cc5)CC(C)(C)CC4)CC3)cc2Oc2cccc3[nH]ccc23)cc1[N+](=O)[O-] [EXAMPLE 246, 4-(4-{[2-(4-chlorophenyl)-4,4-dimethylcyclohex-1-en-1-yl]methyl}piperazin-1-yl)-2-(1H-indol-4-yloxy)-N-{[4-(methylamino)-3-nitrophenyl]sulfonyl}benzamide]",490.9
3,"O=C(NS(=O)(=O)c1ccc(NC2CCN(S(=O)(=O)c3ccccc3)CC2)c([N+](=O)[O-])c1)c1ccc(N2CCN(Cc3ccccc3-c3ccc(Cl)cc3)CC2)cc1Oc1ccccc1 [Example 157, 4-{4-[(4′-chloro-1,1′-biphenyl-2-yl)methyl]piperazin-1-yl}-N-[(3-nitro-4-{[1-(phenylsulfonyl)piperidin-4-yl]amino}phenyl)sulfonyl]-2-phenoxybenzamide]",>148.2
4,"CC1(C)CCC(CN2CCN(c3ccc(C(=O)NS(=O)(=O)c4ccc(NCCC(F)(F)F)c([N+](=O)[O-])c4)c(Oc4ccc5[nH]ccc5c4)c3)CC2)=C(c2ccc(Cl)cc2)C1 [EXAMPLE 324, 4-(4-{[2-(4-chlorophenyl)-4,4-dimethylcyclohex-1-en-1-yl]methyl}piperazin-1-yl)-2-(1H-indol-5-yloxy)-N-({3-nitro-4-[(3,3,3-trifluoropropyl)amino]phenyl}sulfonyl)benzamide]",>445.7
5,"CC1(C)CCC(CN2CCN(c3ccc(C(=O)NS(=O)(=O)c4ccc(NN5CCOCC5)c([N+](=O)[O-])c4)c(Oc4cccc5[nH]ccc45)c3)CC2)=C(c2ccc(Cl)cc2)C1 [EXAMPLE 262, 4-(4-{[2-(4-chlorophenyl)-4,4-dimethylcyclohex-1-en-1-yl]methyl}piperazin-1-yl)-2-(1H-indol-4-yloxy)-N-{[4-(morpholin-4-ylamino)-3-nitrophenyl]sulfonyl}benzamide]",219.9
6,"CC1(C)CCC(CN2CCN(c3ccc(C(=O)NS(=O)(=O)c4ccc(NCCN5CCNC5=O)c([N+](=O)[O-])c4)c(Oc4ccc5[nH]ccc5c4)c3)CC2)=C(c2ccc(Cl)cc2)C1 [EXAMPLE 268, 4-(4-{[2-(4-chlorophenyl)-4,4-dimethylcyclohex-1-en-1-yl]methyl}piperazin-1-yl)-2-(1H-indol-5-yloxy)-N-[(3-nitro-4-{[2-(2-oxoimidazolidin-1-yl)ethyl]amino}phenyl)sulfonyl]benzamide]",1563.9
7,"CC1(C)CCC(CN2CCN(c3ccc(C(=O)NS(=O)(=O)c4ccc(NCC5(N6CCOCC6)CCCCC5)c([N+](=O)[O-])c4)c(Oc4ccc5[nH]ccc5c4)c3)CC2)=C(c2ccc(Cl)cc2)C1 [EXAMPLE 229, 4-(4-{[2-(4-chlorophenyl)-4,4-dimethylcyclohex-1-en-1-yl]methyl}piperazin-1-yl)-2-(1H-indol-5-yloxy)-N-[(4-{[(1-morpholin-4-ylcyclohexyl)methyl]amino}-3-nitrophenyl)sulfonyl]benzamide]",>13.4
8,"CC(c1ccccc1-c1ccc(Cl)cc1)N1CCN(c2ccc(C(=O)NS(=O)(=O)c3ccc(NCCCN4CCOCC4)c([N+](=O)[O-])c3)c(Oc3cccc4[nH]ccc34)c2)CC1 (stereo not drawn) [EXAMPLE 247, 4-{4-[1-(4′-chloro-1,1′-biphenyl-2-yl)ethyl]piperazin-1-yl}-2-(1H-indol-4-yloxy)-N-({4-[(3-morpholin-4-ylpropyl)amino]-3-nitrophenyl}sulfonyl)benzamide]",145.3
9,"CC1(C)CCC(CN2CCN(c3ccc(C(=O)NS(=O)(=O)c4cnc(O[C@@H]5CCN(CC(F)F)C5)c(Cl)c4)c(Oc4cccc5[nH]ncc45)c3)CC2)=C(c2ccc(Cl)cc2)C1 [EXAMPLE 422, N-[(5-chloro-6-{[(3R)-1-(2,2-difluoroethyl)pyrrolidin-3-yl]oxy}pyridin-3-yl)sulfonyl]-4-(4-{[2-(4-chlorophenyl)-4,4-dimethylcyclohex-1-en-1-yl]methyl}piperazin-1-yl)-2-(1H-indazol-4-yloxy)benzamide]",4073
10,"CO[C@H]1CC[C@@H](CNc2ccc(S(=O)(=O)NC(=O)c3ccc(N4CCN(CC5=C(c6ccc(Cl)cc6)CC(C)(C)CC5)CC4)cc3Oc3ccc4[nH]ccc4c3)cc2[N+](=O)[O-])CC1 [EXAMPLE 313, Cis-4-(4-{[2-(4-chlorophenyl)-4,4-dimethylcyclohex-1-en-1-yl]methyl}piperazin-1-yl)-2-(1H-indol-5-yloxy)-N-[(4-{[(4-methoxycyclohexyl)methyl]amino}-3-nitrophenyl)sulfonyl]benzamide]",1500
11,"CC1(C)CCC(CN2CCN(c3ccc(C(=O)NS(=O)(=O)c4ccc(NCCCN5CCCC5=O)c([N+](=O)[O-])c4)c(Oc4ccc5[nH]ccc5c4)c3)CC2)=C(c2ccc(Cl)cc2)C1 [EXAMPLE 374, 4-(4-{[2-(4-chlorophenyl)-4,4-dimethylcyclohex-1-en-1-yl]methyl}piperazin-1-yl)-2-(1H-indol-5-yloxy)-N-[(3-nitro-4-{[3-(2-oxopyrrolidin-1-yl)propyl]amino}phenyl)sulfonyl]benzamide]",>291.2
12,"CC(C)(C)c1ccc(CN2CCN(c3ccc(C(=O)NS(=O)(=O)c4ccc(NC5CCN(C6CCOCC6)CC5)c([N+](=O)[O-])c4)c(Oc4ccc5[nH]ccc5c4)c3)CC2)c(-c2ccc(Cl)cc2)c1 [EXAMPLE 359, 4-{4-[(5-tert-butyl-4′-chloro-1,1′-biphenyl-2-yl)methyl]piperazin-1-yl}-2-(1H-indol-5-yloxy)-N-({3-nitro-4-[(1-tetrahydro-2H-pyran-4-ylpiperidin-4-yl)amino]phenyl}sulfonyl)benzamide]",>49.0
13,"CC1(C)CCC(CN2CCN(c3ccc(C(=O)NS(=O)(=O)c4cnc(OCC5(F)CCOCC5)c(Cl)c4)c(Oc4cccc5[nH]ncc45)c3)CC2)=C(c2ccc(Cl)cc2)C1 [EXAMPLE 404, N-({5-chloro-6-[(4-fluorotetrahydro-2H-pyran-4-yl)methoxy]pyridin-3-yl}sulfonyl)-4-(4-{[2-(4-chlorophenyl)-4,4-dimethylcyclohex-1-en-1-yl]methyl}piperazin-1-yl)-2-(1H-indazol-4-yloxy)benzamide]",2423
14,"CC1(C)CCC(CN2CCN(c3ccc(C(=O)NS(=O)(=O)c4cc(F)c(NCC5CCOCC5)cc4Cl)c(Oc4ccc5[nH]ccc5c4)c3)CC2)=C(c2ccc(Cl)cc2)C1 [EXAMPLE 379, N-({2-chloro-5-fluoro-4-[(tetrahydro-2H-pyran-4-ylmethyl)amino]phenyl}sulfonyl)-4-(4-{[2-(4-chlorophenyl)-4,4-dimethylcyclohex-1-en-1-yl]methyl}piperazin-1-yl)-2-(1H-indol-5-yloxy)benzamide]",>2.6
15,"CC1(C)CCC(CN2CCN(c3ccc(C(=O)NS(=O)(=O)c4ccc(NCCCN5CCS(=O)(=O)CC5)c([N+](=O)[O-])c4)c(Oc4cccc5[nH]ccc45)c3)CC2)=C(c2ccc(Cl)cc2)C1 [EXAMPLE 295, 4-(4-{[2-(4-chlorophenyl)-4,4-dimethylcyclohex-1-en-1-yl]methyl}piperazin-1-yl)-N-[(4-{[3-(1,1-dioxidothiomorpholin-4-yl)propyl]amino}-3-nitrophenyl)sulfonyl]-2-(1H-indol-4-yloxy)benzamide]",599.4
16,"CC1(C)CCC(CN2CCN(c3ccc(C(=O)NS(=O)(=O)c4cnc(NCC5CCOCC5)c(Br)c4)c(Oc4ccc5[nH]ccc5c4)c3)CC2)=C(c2ccc(Cl)cc2)C1 [EXAMPLE 350, N-({5-bromo-6-[(tetrahydro-2H-pyran-4-ylmethyl)amino]pyridin-3-yl}sulfonyl)-4-(4-{[2-(4-chlorophenyl)-4,4-dimethylcyclohex-1-en-1-yl]methyl}piperazin-1-yl)-2-(1H-indol-5-yloxy)benzamide]",>110.6
17,"CC1(C)CCC(CN2CCN(c3ccc(C(=O)NS(=O)(=O)c4ccc(NCC5CCOCC5)c([N+](=O)[O-])c4)c(Oc4cccc5[nH]ncc45)c3)CC2)=C(c2ccc(Cl)cc2)C1 [EXAMPLE 400, 4-(4-{[2-(4-chlorophenyl)-4,4-dimethylcyclohex-1-en-1-yl]methyl}piperazin-1-yl)-2-(1H-indazol-4-yloxy)-N-({3-nitro-4-[(tetrahydro-2H-pyran-4-ylmethyl)amino]phenyl}sulfonyl)benzamide]",>3643.8
18,"CC1(C)CCC(CN2CCN(c3ccc(C(=O)NS(=O)(=O)c4ccc(NN5CCS(=O)(=O)CC5)c([N+](=O)[O-])c4)c(Oc4ccc5[nH]ccc5c4)c3)CC2)=C(c2ccc(Cl)cc2)C1 [EXAMPLE 362, 4-(4-{[2-(4-chlorophenyl)-4,4-dimethylcyclohex-1-en-1-yl]methyl}piperazin-1-yl)-N-({4-[(1,1-dioxidothiomorpholin-4-yl)amino]-3-nitrophenyl}sulfonyl)-2-(1H-indol-5-yloxy)benzamide]",3548.2
